ChEMBL document CHEMBL4251615, “Discovery of anilino-furo[2,3-d]pyrimidine derivatives as dual inhibitors of EGFR/HER2 tyrosine kinase and their anticancer activity” (Eur J Med Chem, 2018)

Experiments:
[1] = tested on: ACHN; experiment: Growth inhibition of human ACHN cells assessed as cell growth at 10 uM incubated for 48 hrs by sulforhodamine B assay relative to control; assay type: functional; settings: read-out: Activity
[2] = biological target: Epidermal growth factor receptor (Homo sapiens, UniProt P00533); experiment: Inhibition of recombinant human C-terminal His/N-terminal GST-tagged EGFR (668 to 1210 residues) expressed in baculovirus infected Sf9 cells at 10 uM using biotin-labeled poly[Glu:Tyr] (4:1) as substrate after 30 mins by Kinase-Glo plus luminescence assay relative to control
[3] = tested on: SR; experiment: Growth inhibition of human SR cells assessed as cell growth at 10 uM incubated for 48 hrs by sulforhodamine B assay relative to control; assay type: functional; settings: read-out: Activity
[4] = tested on: SN12C; experiment: Growth inhibition of human SN12C cells assessed as cell growth at 10 uM incubated for 48 hrs by sulforhodamine B assay relative to control; assay type: functional; settings: read-out: Activity
[5] = tested on: RXF 393; experiment: Growth inhibition of human RXF393 cells assessed as cell growth at 10 uM incubated for 48 hrs by sulforhodamine B assay relative to control; assay type: functional; settings: RXF 393, 48 h, read-out: Activity
[6] = tested on: HL-60(TB); experiment: Growth inhibition of human HL-60(TB) cells assessed as cell growth at 10 uM incubated for 48 hrs by sulforhodamine B assay relative to control; assay type: functional; settings: HL-60, 48 h, read-out: Activity
[7] = tested on: SF-295; experiment: Growth inhibition of human SF295 cells assessed as cell growth at 10 uM incubated for 48 hrs by sulforhodamine B assay relative to control; assay type: functional; settings: SF-295, 48 h, read-out: Activity
[8] = tested on: NCI-H23; experiment: Growth inhibition of human NCI-H23 cells assessed as cell growth at 10 uM incubated for 48 hrs by sulforhodamine B assay relative to control; assay type: functional; settings: NCI-H23, 48 h, read-out: Activity
[9] = tested on: SW-620; experiment: Growth inhibition of human SW620 cells assessed as cell growth at 10 uM incubated for 48 hrs by sulforhodamine B assay relative to control; assay type: functional; settings: SW-620, 48 h, read-out: Activity
[10] = tested on: M14; experiment: Growth inhibition of human M14 cells assessed as cell growth at 10 uM incubated for 48 hrs by sulforhodamine B assay relative to control; assay type: functional; settings: M14, 48 h, read-out: Activity
[11] = tested on: OVCAR-5; experiment: Growth inhibition of human OVCAR5 cells assessed as cell growth at 10 uM incubated for 48 hrs by sulforhodamine B assay relative to control; assay type: functional; settings: OVCAR-5, 48 h, read-out: Activity
[12] = tested on: OVCAR-8; experiment: Growth inhibition of human OVCAR8 cells assessed as cell growth at 10 uM incubated for 48 hrs by sulforhodamine B assay relative to control; assay type: functional; settings: OVCAR-8, 48 h, read-out: Activity
[13] = tested on: MOLT-4; experiment: Growth inhibition of human MOLT4 cells assessed as cell growth at 10 uM incubated for 48 hrs by sulforhodamine B assay relative to control; assay type: functional; settings: MOLT-4, 48 h, read-out: Activity
[14] = tested on: HT-29; experiment: Growth inhibition of human HT-29 cells assessed as cell growth at 10 uM incubated for 48 hrs by sulforhodamine B assay relative to control; assay type: functional; settings: HT-29, 48 h, read-out: Activity
[15] = tested on: HCT-116; experiment: Growth inhibition of human HCT116 cells assessed as cell growth at 10 uM incubated for 48 hrs by sulforhodamine B assay relative to control; assay type: functional; settings: HCT-116, 48 h, read-out: Activity
[16] = tested on: MCF7; experiment: Growth inhibition of human MCF7 cells assessed as cell growth at 10 uM incubated for 48 hrs by sulforhodamine B assay relative to control; assay type: functional; settings: MCF7, 48 h, read-out: Activity
[17] = tested on: UO-31; experiment: Growth inhibition of human UO31 cells assessed as cell growth at 10 uM incubated for 48 hrs by sulforhodamine B assay relative to control; assay type: functional; settings: UO-31, 48 h, read-out: Activity
[18] = tested on: SK-MEL-5; experiment: Growth inhibition of human SK-MEL-5 cells assessed as cell growth at 10 uM incubated for 48 hrs by sulforhodamine B assay relative to control; assay type: functional; settings: SK-MEL-5, 48 h, read-out: Activity
[19] = tested on: CAKI-1; experiment: Growth inhibition of human Caki1 cells assessed as cell growth at 10 uM incubated for 48 hrs by sulforhodamine B assay relative to control; assay type: functional; settings: CAKI-1, 48 h, read-out: Activity
[20] = tested on: SK-OV-3; experiment: Growth inhibition of human SKOV3 cells assessed as cell growth at 10 uM incubated for 48 hrs by sulforhodamine B assay relative to control; assay type: functional; settings: SK-OV-3, 48 h, read-out: Activity
[21] = tested on: A498; experiment: Growth inhibition of human A498 cells assessed as cell growth at 10 uM incubated for 48 hrs by sulforhodamine B assay relative to control; assay type: functional; settings: A498, 48 h, read-out: Activity
[22] = tested on: A549; experiment: Growth inhibition of human A549/ATCC cells assessed as cell growth at 10 uM incubated for 48 hrs by sulforhodamine B assay relative to control; assay type: functional; settings: A549, 48 h, read-out: Activity
[23] = tested on: HCC 2998; experiment: Growth inhibition of human HCC2998 cells assessed as cell growth at 10 uM incubated for 48 hrs by sulforhodamine B assay relative to control; assay type: functional; settings: HCC 2998, 48 h, read-out: Activity
[24] = tested on: SK-MEL-2; experiment: Growth inhibition of human SK-MEL-2 cells assessed as cell growth at 10 uM incubated for 48 hrs by sulforhodamine B assay relative to control; assay type: functional; settings: SK-MEL-2, 48 h, read-out: Activity
[25] = tested on: SNB-19; experiment: Growth inhibition of human SNB19 cells assessed as cell growth at 10 uM incubated for 48 hrs by sulforhodamine B assay relative to control; assay type: functional; settings: SNB-19, 48 h, read-out: Activity
[26] = tested on: UACC-62; experiment: Growth inhibition of human UACC62 cells assessed as cell growth at 10 uM incubated for 48 hrs by sulforhodamine B assay relative to control; assay type: functional; settings: UACC-62, 48 h, read-out: Activity
[27] = tested on: NCI/ADR-RES; experiment: Growth inhibition of human NCI/ADR-RES cells assessed as cell growth at 10 uM incubated for 48 hrs by sulforhodamine B assay relative to control; assay type: functional; settings: read-out: Activity
[28] = tested on: MDA-MB-435; experiment: Growth inhibition of human MDA-MB-435 cells assessed as cell growth at 10 uM incubated for 48 hrs by sulforhodamine B assay relative to control; assay type: functional; settings: MDA-MB-435, 48 h, read-out: Activity
[29] = tested on: Hs-578T; experiment: Growth inhibition of human Hs 578T cells assessed as cell growth at 10 uM incubated for 48 hrs by sulforhodamine B assay relative to control; assay type: functional; settings: read-out: Activity
[30] = tested on: RPMI-8226; experiment: Growth inhibition of human RPMI8226 cells assessed as cell growth at 10 uM incubated for 48 hrs by sulforhodamine B assay relative to control; assay type: functional; settings: RPMI-8226, 48 h, read-out: Activity
[31] = tested on: K562; experiment: Growth inhibition of human K562 cells assessed as cell growth at 10 uM incubated for 48 hrs by sulforhodamine B assay relative to control; assay type: functional; settings: K562, 48 h, read-out: Activity
[32] = tested on: NCI-H322M; experiment: Growth inhibition of human NCI-H322M cells assessed as cell growth at 10 uM incubated for 48 hrs by sulforhodamine B assay relative to control; assay type: functional; settings: read-out: Activity
[33] = tested on: EKVX; experiment: Growth inhibition of human EKVX cells assessed as cell growth at 10 uM incubated for 48 hrs by sulforhodamine B assay relative to control; assay type: functional; settings: read-out: Activity

Chain of Epidermal growth factor receptor (P00533 whole entry, the tested form may be a part): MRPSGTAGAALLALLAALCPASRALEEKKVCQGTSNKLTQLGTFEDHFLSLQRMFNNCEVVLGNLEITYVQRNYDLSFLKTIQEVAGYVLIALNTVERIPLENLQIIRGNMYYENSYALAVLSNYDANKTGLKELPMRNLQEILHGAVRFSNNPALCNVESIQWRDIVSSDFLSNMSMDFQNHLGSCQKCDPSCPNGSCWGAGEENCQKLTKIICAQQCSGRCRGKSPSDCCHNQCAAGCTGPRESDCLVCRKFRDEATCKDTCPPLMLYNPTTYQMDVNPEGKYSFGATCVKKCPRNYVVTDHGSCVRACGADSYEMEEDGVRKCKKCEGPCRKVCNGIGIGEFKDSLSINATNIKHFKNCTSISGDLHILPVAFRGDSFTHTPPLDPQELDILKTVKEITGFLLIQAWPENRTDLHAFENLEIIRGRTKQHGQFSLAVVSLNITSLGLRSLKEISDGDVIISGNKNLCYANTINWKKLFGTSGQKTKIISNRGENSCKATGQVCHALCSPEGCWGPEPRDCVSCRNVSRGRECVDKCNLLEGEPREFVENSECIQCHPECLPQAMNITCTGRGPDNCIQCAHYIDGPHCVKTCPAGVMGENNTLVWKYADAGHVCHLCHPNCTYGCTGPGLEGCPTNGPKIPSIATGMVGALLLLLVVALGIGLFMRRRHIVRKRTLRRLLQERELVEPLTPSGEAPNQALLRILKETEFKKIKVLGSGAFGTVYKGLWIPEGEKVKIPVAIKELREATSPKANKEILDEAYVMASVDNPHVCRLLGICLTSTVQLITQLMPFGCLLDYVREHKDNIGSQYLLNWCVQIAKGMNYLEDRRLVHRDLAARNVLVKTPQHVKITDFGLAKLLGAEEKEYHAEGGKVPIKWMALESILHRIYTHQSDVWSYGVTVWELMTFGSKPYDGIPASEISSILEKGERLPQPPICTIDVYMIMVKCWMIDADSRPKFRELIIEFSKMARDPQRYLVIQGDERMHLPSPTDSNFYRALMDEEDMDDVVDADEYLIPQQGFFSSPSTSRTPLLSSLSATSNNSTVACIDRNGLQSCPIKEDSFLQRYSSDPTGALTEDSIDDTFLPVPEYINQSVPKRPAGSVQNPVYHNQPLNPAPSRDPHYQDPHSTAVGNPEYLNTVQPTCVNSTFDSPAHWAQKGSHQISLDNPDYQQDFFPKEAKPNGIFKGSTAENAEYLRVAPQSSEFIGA

SMILES	growth at 10 µM [1] [%]	inhibition [2] [%]	growth at 10 µM [3] [%]	growth at 10 µM [4] [%]	growth at 10 µM [5] [%]	growth at 10 µM [6] [%]	growth at 10 µM [7] [%]	growth at 10 µM [8] [%]	growth at 10 µM [9] [%]	growth at 10 µM [10] [%]	growth at 10 µM [11] [%]	growth at 10 µM [12] [%]	growth at 10 µM [13] [%]	growth at 10 µM [14] [%]	growth at 10 µM [15] [%]	growth at 10 µM [16] [%]	growth at 10 µM [17] [%]	growth at 10 µM [18] [%]	growth at 10 µM [19] [%]	growth at 10 µM [20] [%]	also measured
Cc1oc2ncnc(Nc3ccc(OCc4cccc(F)c4)c(Cl)c3)c2c1C(=O)NCCO	49.7	32	99.7	45.3	60	42.4	49.5	58.6	93.4	66.9	96.9	42.8	68.5	73	64.9	62.9	57.6	73.1	74.2	74.2	growth at 10 µM [21]: 81.6%; growth at 10 µM [22]: 53.5%; growth at 10 µM [23]: 79.1%; growth at 10 µM [24]: 78.5%; growth at 10 µM [25]: 34.3%; growth at 10 µM [26]: 55%; growth at 10 µM [27]: 70.8%; growth at 10 µM [28]: 62.6%; growth at 10 µM [29]: 46.1%; growth at 10 µM [30]: 70.2%; growth at 10 µM [31]: 33.2%; growth at 10 µM [32]: 86.3%; growth at 10 µM [33]: 47.8%
CCOC(=O)c1c(C)oc2ncnc(Nc3ccc(F)c(Cl)c3)c12	112	10	96.8	92.2	101	101	97	88	101	110	112	100	99.2	92.8	103	104	88.5	94.5	106	90.7	growth at 10 µM [21]: 87.4%; growth at 10 µM [22]: 86.9%; growth at 10 µM [23]: 109%; growth at 10 µM [24]: 95.5%; growth at 10 µM [25]: 100%; growth at 10 µM [26]: 94.9%; growth at 10 µM [27]: 107%; growth at 10 µM [28]: 114%; growth at 10 µM [29]: 97%; growth at 10 µM [30]: 101%; growth at 10 µM [31]: 93.8%; growth at 10 µM [32]: 101%; growth at 10 µM [33]: 108%
Cc1cccc(Nc2ncnc3oc(C)c(C(=O)NCCO)c23)c1	94.8	36	90.8	97.1	81.1	84.6	96.3	92.8	96	103	95.3	104	57.4	99.8	93	94.8	86.2	94.6	87.2	94.8	growth at 10 µM [21]: 74.7%; growth at 10 µM [22]: 89.4%; growth at 10 µM [23]: 99.4%; growth at 10 µM [24]: 113%; growth at 10 µM [25]: 103%; growth at 10 µM [26]: 83.1%; growth at 10 µM [27]: 92.4%; growth at 10 µM [28]: 97.2%; growth at 10 µM [29]: 100%; growth at 10 µM [30]: 95.7%; growth at 10 µM [31]: 90.2%; growth at 10 µM [32]: 95%; growth at 10 µM [33]: 91.8%
